# Measurements: patent US9334273B1, “Efficient and stereoselective synthesis of 2′-fluoro-6′-methylene-carbocyclic adenosine (FMCA)” (UNIVERSITY OF GEORGIA RESEARCH FOUNDATION, INC., priority 2014, dated 2016)
# What was measured:
# [1] = test system: entecavir resistant triple mutant (L180M+M204V+S202G) HBV; details: cited from earlier work; for EC50: in vitro, entecavir resistant triple mutant (L180M+M204V+S202G)
# [2] = test system: HBV wild type as well as resistant mutants; details: both wild type as well as resistant mutants; cited from earlier work
SMILES,EC50 [1],anti-HBV efficacy [2],melting point,fold less effective against the mutant in comparison to wild type ([1]; triple mutant (L180M+M204V+S202G) vs wild type)
"C=C1[C@@H](n2cnc3c(N)ncnc32)C(F)C(O)[C@H]1CO (single isomer, unassigned; (+)) [FMCA, (+)-9-[(1′R, 2′R, 3′R, 4′R)-2′-Fluoro-3′-hydroxy-4′-(hydroxymethyl)-5′-methylenecyclo-pentan-1′-yl]-adenine]",670 nM,demonstrated the anti-HBV efficacy,215 to 218 °C (dec.),
C=C1C(COP(=O)(N[C@@H](C)C(=O)OC)Oc2ccccc2)C(O)C(F)C1n1cnc2c(N)ncnc21 (stereo partly drawn) [FMCAP],54 nM,demonstrated the anti-HBV efficacy,,
"C=C1[C@H](CO)[C@@H](O)C[C@@H]1n1cnc2c(=O)[nH]c(N)nc21 [entecavir, reference compound]",,,,150 fold
